Results: the NIST ThermoML archive (doi:10.1021/je401026a)
Numbers after ± are expanded uncertainties.

Details: 298 K; Liquid; Gas chromatography

| SMILES | vapor or sublimation pressure [kPa] |
| --- | --- |
| CCCCC(CC)COP(=O)(Oc1ccccc1)Oc1ccccc1 (stereo unspecified) [2-ethylhexyl diphenyl phosphate] | 8.9e-08 ± 6.3e-08 |
| Cc1ccc(OP(=O)(Oc2ccc(C)cc2)Oc2ccc(C)cc2)cc1 [phosphoric acid, tri-p-cresyl ester] | 1.1e-08 ± 1.2e-08 |
| Cc1ccccc1OP(=O)(Oc1ccccc1C)Oc1ccccc1C [tri-2-tolyl phosphate] | 5.1e-08 ± 2.6e-08 |
| Cc1cccc(OP(=O)(Oc2cccc(C)c2)Oc2cccc(C)c2)c1 [tri-m-tolyl phosphate] | 2.1e-08 ± 1.8e-08 |
| O=P(Oc1ccccc1)(Oc1ccccc1)Oc1ccccc1 [triphenyl phosphate] | 2.7e-07 ± 2e-07 |
| O=P(OC(CCl)CCl)(OC(CCl)CCl)OC(CCl)CCl [tris(1,3-dichloro-2-propanol) phosphate] | 4.1e-07 ± 2.8e-07 |
| CC(CCl)OP(=O)(OC(C)CCl)OC(C)CCl (stereo unspecified) [tris(1-chloro-2-propyl) phosphate] | 3.5e-05 ± 1.7e-05 |
| CC(C)c1ccccc1OP(=O)(Oc1ccccc1C(C)C)Oc1ccccc1C(C)C [tris(2-(1-methylethyl)-phenol) phosphate] | 6e-09 ± 9e-09 |
| CCCCOCCOP(=O)(OCCOCCCC)OCCOCCCC [tris(2-butoxyethyl) phosphate] | 4.9e-08 ± 3.8e-08 |
| O=P(OCCCl)(OCCCl)OCCCl [tris(2-chloroethyl) phosphate] | 4.8e-05 ± 2.2e-05 |
| CCCCC(CC)COP(=O)(OCC(CC)CCCC)OCC(CC)CCCC (stereo unspecified) [tris(2-ethylhexyl) phosphate] | 2.1e-08 ± 1.8e-08 |
